Patent US20250186405A1, “Compound For Use In Treating Narcolepsy” (Alkermes, Inc., priority 2023, published 2025)

Tested on: healthy adult subjects
Experiment: Part 3 RelBA with FE: safety
Format: in vivo, human
Conditions: 10 mg
Method: Part 3 compared the relative bioavailability (RelBA) of Compound A between a tablet formulation and the powder-in-capsule formulation. In addition, the food effect (FE) on the bioavailability of Compound A was assessed following administration of tablet formulation. Dose levels were as follows:
The Part 3 (RelBA with FE) evaluation was conducted using a 2-sequence, 3-period crossover study design in approximately 12 subjects. Subjects in Part 3 were randomized 1:1 to receive 1 of 2 sequences consisting of 3 periods with up to 72 hours of washout between treatments. The first 2 periods were dosed under fasted state and the third period was dosed in a fed state (high-fat meal).
In treatment period(s) under the fed condition, following overnight fast, all subjects were given a high-fat breakfast. Within 30 minutes of starting the consumption of the breakfast, the assigned treatment was administered. […] There was a 72-hour washout period between the treatments.

CS(=O)(=O)N[C@H]1CCCN2C(=O)COc3ccccc3C3CCC(CC3)OCC12 (stereo partly drawn) [Compound A, N-[(4S,4aR,7α,10α)-1,2,3,4,4a,5,7,8,9,10,16,17-dodecahydro-17-oxo-7,10-ethanopyrido[1,2-d][1,7,4]benzodioxaazacyclotridecin-4-yl]methanesulfonamide]
Tolerability (fed and fasted conditions): well tolerated | subjects reporting at least one AE (of 12) (three administrations): 11
